Source: article PMC7108740, “Exploring the molecular structures that confer ligand selectivity for galanin type II and III receptors” (PLoS ONE, 2020)
Substitutions are numbered along the chain they refer to. Ends that are not written are not given here.

Columns and labels:
[1] = biological target: T1, GALR3 double mutant L^100F, Y^107H (Homo sapiens, UniProt O60755, L100F/Y107H); test: SRE-luc luciferase assay, GALR3 L100F,Y107H; format: cell-based; conditions: GALR3 L^100F, SRE-luc in HEK293 Gqi cells, ligand 6 h, mean ± S.E., SEM
T1 construct: expressed in transfected cells; host or cells: HEK293 cells stably expressing Gqi
T1 sequence (O60755 1-368 L100F/Y107H): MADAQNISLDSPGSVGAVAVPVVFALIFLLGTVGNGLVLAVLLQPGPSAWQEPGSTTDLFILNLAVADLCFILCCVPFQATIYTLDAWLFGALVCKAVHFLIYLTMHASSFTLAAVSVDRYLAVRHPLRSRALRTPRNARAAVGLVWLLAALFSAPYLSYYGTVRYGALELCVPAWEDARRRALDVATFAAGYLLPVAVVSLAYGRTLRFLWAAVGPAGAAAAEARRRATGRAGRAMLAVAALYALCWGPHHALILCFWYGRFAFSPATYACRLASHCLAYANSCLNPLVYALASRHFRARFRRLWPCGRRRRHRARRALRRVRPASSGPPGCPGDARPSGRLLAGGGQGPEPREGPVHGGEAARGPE
From the text: (§1) For domain swapping between GALR2 and GALR3, individual cDNA fragments of interest were amplified by polymerase chain reaction (PCR) with Pfu polymerase (ELPIS Biotech, Daejeon, Korea) and two specific primers, one corresponding to the 5' or 3' end of the GALR2 or GALR3 cDNA and the other to the region of overlap between the two receptors. The two resulting fragments, one from GALR2 and the other from GALR3, were subjected to a second round of PCR to generate the chimeric cDNAs. To construct single, double-, triple-, pentuple-, hextuple-, and septuple-mutant receptors, amino acids of GALR3 were substituted for the amino acids at the corresponding positions in GALR2 using PCR-based site-directed mutagenesis. All of the chimeric constructs were cloned into the pcDNA3 expression vector at HindⅢ and XbaⅠ sites. The DNA sequences of the chimeras were verified by automatic sequencing. HEK293 cells stably expressing the Gqi construct, which allows induction of Gq-dependent signaling pathways upon activation of a Gi-coupled receptor [14, 30], were maintained in Dulbecco's Modified Eagle's Medium (DMEM) in the presence of 10% fetal bovine serum and 1% penicillin and streptomycin. For all transfections, 200 ng DNA (100 ng receptor and 100 ng SRE-luc) mixed with lipofectamine 2000 was applied to 60–80% confluent cells on a multi-well plate according to the manufacturer's instructions (Invitrogen, Carlsbad, CA). For luciferase assays, HEK293 Gqi cells were seeded on 48-well plates at a density of 2.5 × 10^4 cells/well one day before transfection. […] The luciferase activity in 50 μl cell extract was determined using a luciferase assay system according to the standard protocol for the Synergy 2 Multi-Mode Microplate Reader (BioTek, Winooski, VT, USA). […] The concentrations of agonists that induced half-maximal stimulation (EC50) were calculated using the GraphPad PRISM5 software (GraphPad software, Inc., San Diego, CA). […]

[2] = biological target: T2, GALR3 single mutant Y^103F (Homo sapiens, UniProt O60755, Y103F); test: SRE-luc luciferase assay, GALR3 Y103F; format: cell-based; conditions: GALR3 Y^103F; SRE-luc in HEK293 Gqi cells, ligand 6 h; mean ± S.E.; SEM
T2 construct: expressed in transfected cells; host or cells: HEK293 cells stably expressing Gqi
T2 sequence (O60755 1-368 Y103F): T1 sequence (O60755 1-368 L100F/Y107H) with F100L, Y103F, H107Y
From the text: as §1

Compound | EC50 [1] [nM] | EC50 [2] [nM]
CSCC[C@H](NC(=O)[C@H](C)NC(=O)[C@H](CCC(N)=O)NC(=O)[C@@H]1CCCN1C(=O)[C@@H](NC(=O)[C@H](Cc1c[nH]c2ccccc12)NC(=O)[C@@H](N)CC(N)=O)[C@@H](C)O)C(=O)N[C@@H](CC(C)C)C(=O)N[C@@H](Cc1ccc(O)cc1)C(=O)N[C@@H](CC(C)C)C(=O)N[C@@H](CCCCN)C(=O)NCC(=O)N[C@@H](C)C(=O)N[C@@H](CCC(N)=O)C(N)=O [SPX, reference compound] | 38.9 ± 7.28 | 32.4 ± 10.5
NWTPQAALYLKGAQ-NH2 [A^7-SPX] | 69.2 ± 20.2 | 302 ± 72.9
NWTPNAMLYLKGAQ-NH2 [N^5-SPX] | 155 ± 40.1 | 676 ± 127
